Laboratory results as given in ChEMBL document CHEMBL3853337, “Synthesis and P1' SAR exploration of potent macrocyclic tissue factor-factor VIIa inhibitors” (Bioorg Med Chem Lett, 2016).

Legend:
[1] = molecular target: T1, Coagulation factor VII/tissue factor (Homo sapiens, UniProt P08709); experiment: Inhibition of recombinant human TF-factor 7a using factor 10 as substrate at 37 degC; type: protein-complex assay
[2] = molecular target: Coagulation factor X (Homo sapiens, UniProt P00742); experiment: Inhibition of factor 10a (unknown origin) at 25 degC by chromogenic substrate assay
[3] = molecular target: Prothrombin (Homo sapiens, UniProt P00734); experiment: Inhibition of thrombin (unknown origin) at 25 degC by chromogenic substrate assay
[4] = Inhibition of trypsin (unknown origin) at 25 degC by chromogenic substrate assay; parameters: species or system Homo sapiens
[5] = molecular target: Kallikrein-1 (Homo sapiens, UniProt P06870); experiment: Inhibition of human kallikrein1 at 37 degC by chromogenic substrate assay
[6] = molecular target: Vitamin K-dependent protein C (Homo sapiens, UniProt P04070); experiment: Inhibition of activated protein C (unknown origin) at 37 degC by chromogenic substrate assay
[7] = Half-life in human liver microsomes; type: ADME
[8] = species on record: Homo sapiens; experiment: Selectivity ratio of Ki for human kallikrein1 to Ki for recombinant human TF-factor 7a
[9] = Anticlotting activity in human factor 7 immunodepleted plasma mixed with normal pooled plasma from different species assessed compound causing 2 times increase in prothrombin time after 3 mins relative to baseline control; type: functional
[10] = Fraction unbound in human plasma; type: ADME, cell-free
[11] = Permeability of the compound at pH 5.5 by PAMPA assay; type: ADME; details: read-out: permeability
[12] = Permeability of the compound at pH 7.4 by PAMPA assay; type: ADME; details: read-out: permeability
[13] = Clearance in iv dosed dog; type: ADME, organism-based, Canis lupus familiaris; details: in vivo
[14] = Oral bioavailability in iv dosed dog; type: ADME, organism-based, Canis lupus familiaris; details: in vivo
[15] = Metabolic stability in human liver microsomes assessed as compound remaining after 10 mins; type: ADME; details: read-out: Stability
[16] = Half life in Beagle dog liver microsomes at 3 uM by LC-MS/MS analysis; type: ADME, Canis lupus familiaris
[17] = Permeability from apical to basolateral side in human Caco2 cells; type: ADME, cell-based; details: Caco-2, read-out: permeability
[18] = Permeability from basolateral to apical side in human Caco2 cells; type: ADME, cell-based; details: Caco-2, read-out: permeability
[19] = Clearance in po or iv dosed Beagle dog by LC-MS/MS analysis; type: ADME, organism-based, Canis lupus familiaris; details: in vivo
[20] = Oral bioavailability in Beagle dog; type: ADME, organism-based, Canis lupus familiaris; details: in vivo
[21] = molecular target: T1, Coagulation factor VII/tissue factor; experiment: Inhibition of human TF-factor 7a ([…] residues) using factor 10 as substrate after 60 mins; type: protein-complex assay
[22] = species on record: Homo sapiens; experiment: Selectivity ratio of Ki for factor 9a (unknown origin) to Ki for human factor 7a ([…] residues)
[23] = species on record: Homo sapiens; experiment: Selectivity ratio of Ki for factor 10a (unknown origin) to Ki for human factor 7a ([…] residues)
[24] = species on record: Homo sapiens; experiment: Selectivity ratio of Ki for thrombin (unknown origin) to Ki for human factor 7a ([…] residues)
[25] = species on record: Homo sapiens; experiment: Selectivity ratio of Ki for trypsin (unknown origin) to Ki for human factor 7a ([…] residues)

SMILES: Cc1cc2ccc1[C@@H](C)COC(=O)Nc1ccc(C3CC3)c(c1)CN(C)C(=O)[C@@H]2Nc1ccc2c(N)ncc(F)c2c1
- Ki [1]: 18 nM
- Ki [2]: 3000 nM
- Ki [3]: 18000 nM
- Ki [4]: > 6200 nM
- Ki [5]: 15 nM
- Ki [6]: 220 nM
- half-life [7]: 0.383 h
- Ratio Ki [8]: 0.8
- EC [9]: 32 µM

SMILES: Cc1cc2ccc1[C@@H](C)COC(=O)Nc1ccc(C3(C(=O)O)CCC3)c(c1)CN(C)C(=O)[C@@H]2Nc1ccc2c(N)ncc(F)c2c1
- Ki [1]: 0.14 nM
- Ki [2]: 850 nM
- Ki [3]: > 13300 nM
- Ki [4]: 3400 nM
- Ki [5]: 1150 nM
- Ki [6]: 725 nM
- fraction unbound [10]: 0.033
- Papp [11]: 20.9 ×10⁻⁶ cm/s
- Papp [12]: 3.4 ×10⁻⁶ cm/s
- half-life [7]: > 2 h
- clearance [13]: 56 mL/min/kg
- EC [9]: 7.9 µM

SMILES: Cc1cc2ccc1[C@@H](C)COC(=O)Nc1ccc(C3(C(=O)O)CCCCC3)c(c1)CN(C)C(=O)[C@@H]2Nc1ccc2c(N)ncc(F)c2c1
- Ki [1]: 0.06 nM
- Ki [2]: 900 nM
- Ki [3]: > 13300 nM
- Ki [4]: 505 nM
- Ki [5]: 1200 nM
- Ki [6]: 155 nM
- fraction unbound [10]: 0.017
- Papp [11]: 80.5 ×10⁻⁶ cm/s
- Papp [12]: 8 ×10⁻⁶ cm/s
- half-life [7]: 1.57 h
- EC [9]: 18 µM

SMILES: Cc1cc2ccc1[C@@H](C)COC(=O)Nc1ccc(C3(c4nnn[nH]4)CC3)c(c1)CN(C)C(=O)[C@@H]2Nc1ccc2c(N)ncc(F)c2c1
- Ki [1]: 0.72 nM
- Ki [2]: 1050 nM
- Ki [3]: > 13300 nM
- Ki [4]: 4900 nM
- Ki [5]: 960 nM
- Ki [6]: 175 nM
- fraction unbound [10]: 0.018
- Papp [11]: 11.9 ×10⁻⁶ cm/s
- Papp [12]: 4.8 ×10⁻⁶ cm/s
- half-life [7]: 1.9 h
- clearance [13]: 7 mL/min/kg
- bioavailability [14]: 2%
- EC [9]: 10 µM

SMILES: Cc1cc2ccc1[C@@H](C)COC(=O)Nc1ccc(C3(C(=O)O)CCCC3)c(c1)CN(C)C(=O)[C@@H]2Nc1ccc2c(N)ncc(F)c2c1
- Ki [1]: 0.22 nM
- Ki [2]: 1800 nM
- Ki [3]: > 13300 nM
- Ki [4]: 2200 nM
- Ki [5]: 1600 nM
- Ki [6]: 340 nM
- fraction unbound [10]: 0.028
- Papp [11]: 21.1 ×10⁻⁶ cm/s
- Papp [12]: 4 ×10⁻⁶ cm/s
- clearance [13]: 54 mL/min/kg
- EC [9]: 6.6 µM

SMILES: Cc1cc2ccc1[C@@H](C)COC(=O)Nc1ccc(C3(C(=O)O)CC3)c(c1)CN(C)C(=O)[C@@H]2Nc1ccc2c(N)ncc(F)c2c1
- Ki [2]: 6650 nM
- Ki [3]: > 13300 nM
- Ki [4]: 2750 nM
- Ki [6]: 70 nM
- fraction unbound [10]: 0.044
- Papp [11]: 33.7 ×10⁻⁶ cm/s
- Papp [12]: 11.7 ×10⁻⁶ cm/s
- remaining at 10 min [15]: 100%
- EC [9]: 4.7 µM

SMILES: Cc1cc2ccc1[C@@H](C)COC(=O)Nc1ccc(C3(C(=O)O)CCOCC3)c(c1)CN(C)C(=O)[C@@H]2Nc1ccc2c(N)ncc(F)c2c1
- Ki [1]: 4.4 nM
- Ki [2]: 1400 nM
- Ki [3]: > 13300 nM
- Ki [4]: > 6200 nM
- Ki [5]: 5300 nM
- Ki [6]: 1600 nM
- fraction unbound [10]: 0.058
- Papp [11]: 2.6 ×10⁻⁶ cm/s
- Papp [12]: 2.1 ×10⁻⁶ cm/s
- half-life [7]: > 2 h
- EC [9]: 11 µM

SMILES: Cc1cc2ccc1[C@@H](C)COC(=O)Nc1ccc(C3CC3)c(c1)CN(C)C(=O)[C@@H]2Nc1ccc2c(N)nccc2c1
- half-life at 3 µM [16]: 3.33 h
- Papp A→B [17]: < 1.5 ×10⁻⁶ cm/s
- Papp B→A [18]: 9.3 ×10⁻⁶ cm/s
- clearance [19]: 2.2 mL/min/kg
- bioavailability [20]: 12%
- Ki [21]: 2 nM

SMILES: Cc1cc2ccc1[C@@H](C)COC(=O)Nc1ccc(S(=O)(=O)C3CC3)c(c1)CN(C)C(=O)[C@@H]2Nc1ccc2c(N)nccc2c1
- half-life at 3 µM [16]: 1.77 h
- clearance [19]: 29 mL/min/kg
- bioavailability [20]: 1%
- EC [9]: 1.1 µM

SMILES: CCS(=O)(=O)c1ccc2cc1CNC(=O)[C@H](Nc1ccc3c(N)nccc3c1)c1ccc(c(C)c1)CCOC(=O)N2
- EC [9]: 1.2 µM
- Ratio Ki [22]: > 500
- Ratio Ki [23]: > 500
- Ratio Ki [24]: > 500
- Ratio Ki [25]: > 500
